The target in experiment [1] is KRAS WT (Homo sapiens (Human), UniProt P01116+P62937). In words: Ras-Raf disruption/FRET/MOA assay, KRAS WT. It counts as biochemical. Particulars: read-out: KRAS WT FRET IC50. From the text:
(§1) Disruption of B-Raf Ras-Binding Domain (BRAF^RBD) Interaction with K-Ras by Compounds of the Invention (Also Called a FRET Assay or an MOA Assay)
(§2) Note—The following protocol describes a procedure for monitoring disruption of K-Ras G12C (GMP-PNP) binding to BRAF^RBD by a compound of the invention. This protocol may also be executed substituting other Ras proteins or nucleotides, such as K-Ras G12D and K-Ras G13D.
(§3) The purpose of this biochemical assay was to measure the ability of test compounds to facilitate ternary complex formation between a nucleotide-loaded K-Ras isoform and Cyclophilin A; the resulting ternary complex disrupts binding to a BRAF^RBD construct, inhibiting K-Ras signaling through a RAF effector. Data is reported as IC50 values.
(§4) In assay buffer containing 25 mM HEPES pH 7.3, 0.002% Tween20, 0.1% BSA, 100 mM NaCl and 5 mM MgCl2, tagless Cyclophilin A, His6-K-Ras-GMPPNP, and GST-BRAF^RBD were combined in a 384-well assay plate at final concentrations of 25 μM, 12.5 nM, and 50 nM, respectively. Compound was present in plate wells as a 10-point 3-fold dilution series starting at a final concentration of 30 μM. After incubation at 25° C. for 3 hours, a mixture of anti-His Eu—W1024 and anti-GST allophycocyanin was then added to assay sample wells at final concentrations of 10 nM and 50 nM, respectively, and the reaction incubated for an additional 1.5 hours. […] Compounds that facilitate disruption of a K-Ras: RAF complex were identified as those eliciting a decrease in the TR-FRET ratio relative to DMSO control wells.

In experiment [2] the target is KRAS G12V (Homo sapiens (Human), UniProt P01116+P62937, G12V). In words: Ras-Raf disruption/FRET/MOA assay, KRAS G12V. Format: biochemical.
Description: as §1, §2, §3, §4

Experiment [3] relates to NCI-H358 (K-Ras G12C). In words: CellTiter-Glo cell viability assay, H358. Particulars: Homo sapiens, NCI-H358, 120 h, read-out: H358 Cell Viability IC50, K-Ras G12C, 5-day treatment. It counts as cell-based, human. In outline:
(§5)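 Steps: compound dispensed into wells holding cells; incubation to day 5; ~30 min room-temperature equilibration; luminescence read; sample signal divided by mean DMSO signal, times 100; four-parameter logistic curve fit.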

Experiment [4] relates to AsPC-1 (K-Ras G12D). The experiment in a line: CellTiter-Glo cell viability assay, AsPC-1. Format: cell-based, human. The conditions noted are these: Homo sapiens, ASPC1, 120 h, read-out: AsPC-1 Cell Viability IC50. In outline: as §5
Experiment [5] concerns AsPC-1 (K-Ras G12D). The experiment in a line: Potency assay: pERK. Format: cell-based, human. The conditions noted are these: Homo sapiens, ASPC1, read-out: pERK EC50. In outline: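 Cells plated overnight, then exposed 4 h at 37 °C to 10-point 3-fold dilutions of compound, in duplicate. pERK read by AlphaLISA SureFire Ultra p-ERK1/2 lysate assay or by In-Cell Western (pERK antibody, DRAQ5 DNA normalisation). IC50 from 4-parameter sigmoidal fit of signal vs log concentration.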

Like-named read-outs stand apart in the source and are kept apart here. A value given as a limit tells only on which side of the number the result lay.

KRAS G12V, sequence (P01116 other isoform, or with tags, fused parts or gaps G12V): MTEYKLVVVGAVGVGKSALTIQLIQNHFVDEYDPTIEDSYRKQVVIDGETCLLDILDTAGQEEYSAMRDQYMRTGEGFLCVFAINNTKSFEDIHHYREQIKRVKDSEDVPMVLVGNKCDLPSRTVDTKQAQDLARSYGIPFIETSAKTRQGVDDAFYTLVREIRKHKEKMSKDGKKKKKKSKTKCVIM
KRAS G12V, sequence (P62937 whole entry): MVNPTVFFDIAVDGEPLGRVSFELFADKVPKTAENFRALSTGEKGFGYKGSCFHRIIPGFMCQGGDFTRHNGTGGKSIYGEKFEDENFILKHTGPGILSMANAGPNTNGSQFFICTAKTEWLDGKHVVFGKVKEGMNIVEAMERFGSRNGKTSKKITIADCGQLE
KRAS WT, sequence (P01116 other isoform, or with tags, fused parts or gaps): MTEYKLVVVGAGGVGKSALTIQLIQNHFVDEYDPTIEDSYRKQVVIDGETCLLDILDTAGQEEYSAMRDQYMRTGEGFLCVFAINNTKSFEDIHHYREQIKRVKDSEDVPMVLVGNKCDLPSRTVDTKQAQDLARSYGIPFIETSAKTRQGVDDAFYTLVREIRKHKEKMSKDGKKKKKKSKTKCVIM
KRAS WT, sequence (P62937 whole entry, the tested form may be a part): as the sequence (P62937 whole entry) above

Regarding `CCn1c(-c2cccnc2[C@@H](C)OC)c2c3cc(ccc31)-c1cc(O)cc(c1)C[C@H](NC(=O)[C@H](C(C)C)N(C)C(=O)[C@H]1CCN(C(=O)[C@H]3CN3)C1)C(=O)N1CCC[C@H](N1)C(=O)OCC(C)(C)C2` (atropisomer, axis not shown) [Example 43B], in experiment [1], the IC50 (in general, the point on the concentration scale where inhibition reaches its midpoint) was 1 to 10 µM.

With `CCn1c(-c2cccnc2[C@H](C)OC)c2c3cc(ccc31)-c1cccc(c1)C[C@H](NC(=O)[C@H](C(C)C)N(C)C(=O)CCN=C=NCc1ccccc1OC)C(=O)N1CCC[C@H](N1)C(=O)OCC(C)(C)C2` [Example 73], the IC50 in experiment [2] (read-out: KRAS G12V FRET IC50) was in the range of 1 to 10 µM.

Regarding `CCn1c(-c2cccnc2[C@H](C)OC)c2c3cc(ccc31)-c1cccc(c1)C[C@H](NC(=O)[C@H](C(C)C)N(C)C(=O)[C@H]1CC[C@H](N=C=NCc3ccccc3OC)C1)C(=O)N1CCC[C@H](N1)C(=O)OCC(C)(C)C2` [Example 76], in experiment [2] (read-out: KRAS G12V FRET IC50), the IC50 lay in the range of 1 to 10 µM.

For `CCn1c(-c2cccnc2[C@H](C)OC)c2c3cc(ccc31)-c1cccc(c1)C[C@H](NC(=O)[C@H](C(C)C)N(C)C(=O)[C@H]1CC[C@H](N=C=NC(C)(C)C)C1)C(=O)N1CCC[C@H](N1)C(=O)OCC(C)(C)C2` [Example 125], the IC50 in experiment [2] (read-out: KRAS G12V FRET IC50) is 1 to 10 µM.

On to `CCn1c(-c2cccnc2[C@H](C)OC)c2c3cc(ccc31)-c1cc(O)cc(c1)C[C@H](NC(=O)[C@H](C(C)C)N(C)C(=O)CN(C)C(=O)[C@H]1N[C@@H]1C(F)(F)F)C(=O)N1CCC[C@H](N1)C(=O)OCC(C)(C)C2` [Example 261], for which the IC50 in experiment [3] is less than 0.01 µM; in experiment [4], 0.1 to 1 µM. Besides, the EC50 – broadly, the concentration at which the effect is half-maximal – in experiment [5] is less than 5 µM.

Turning to `CC[C@H]1N[C@H]1C(=O)N(C)CC(=O)N(C)[C@H](C(=O)N[C@H]1Cc2cc(O)cc(c2)-c2ccc3c(c2)c(c(-c2cccnc2[C@H](C)OC)n3CC)CC(C)(C)COC(=O)[C@@H]2CCCN(N2)C1=O)C(C)C` [Example 262], the IC50 is 0.01 to 0.1 µM in experiment [3] and 0.1 to 1 µM in experiment [4]. In experiment [5], the EC50 was less than 5 µM.

Regarding `CC[C@@H]1N[C@@H]1C(=O)N(C)CC(=O)N(C)[C@H](C(=O)N[C@H]1Cc2cc(O)cc(c2)-c2ccc3c(c2)c(c(-c2cccnc2[C@H](C)OC)n3CC)CC(C)(C)COC(=O)[C@@H]2CCCN(N2)C1=O)C(C)C` [Example 263], the IC50 in experiment [3] lay in the range of 0.01 to 0.1 µM; in experiment [4], 0.1 to 1 µM. The EC50 in experiment [5] is less than 5 µM.

Take `CCn1c(-c2cccnc2[C@H](C)OC)c2c3cc(ccc31)-c1cc(O)cc(c1)C[C@H](NC(=O)[C@H](C(C)C)N(C)C(=O)CN(C)C(=O)[C@@H]1N[C@@H]1C(C)C)C(=O)N1CCC[C@H](N1)C(=O)OCC(C)(C)C2` [Example 264]: the figures for the IC50 in experiment [3] and in experiment [4] were 0.01 to 0.1 µM and 0.1 to 1 µM, respectively. Further, the EC50 in experiment [5] was less than 5 µM.

As to `CCn1c(-c2cccnc2[C@H](C)OC)c2c3cc(ccc31)-c1cc(O)cc(c1)C[C@H](NC(=O)[C@H](C(C)C)N(C)C(=O)CN(C)C(=O)[C@H]1N[C@H]1C(C)C)C(=O)N1CCC[C@H](N1)C(=O)OCC(C)(C)C2` [Example 265], the IC50 in experiment [3] lay in the range of 0.01 to 0.1 µM; in experiment [4] it was 0.1 to 1 µM. The EC50 in experiment [5] was less than 5 µM.

`CCn1c(-c2cccnc2[C@H](C)OC)c2c3cc(ccc31)-c1cc(O)cc(c1)C[C@H](NC(=O)[C@H](C(C)C)N(C)C(=O)CN(C)C(=O)[C@H]1CN1CC(=O)N(C)C)C(=O)N1CCC[C@H](N1)C(=O)OCC(C)(C)C2` (some centres unmarked) [Example 270]: the IC50 in experiment [3] lay in the range of 0.01 to 0.1 µM; in experiment [4] it was 0.1 to 1 µM. The EC50 in experiment [5] is less than 5 µM.

On to `CCn1c(-c2cccnc2[C@H](C)OC)c2c3cc(ccc31)-c1cc(O)cc(c1)C[C@H](NC(=O)[C@H](C(C)C)N(C)C(=O)CN(C)C(=O)[C@H]1CN1CCCC#N)C(=O)N1CCC[C@H](N1)C(=O)OCC(C)(C)C2` (some centres unmarked) [Example 273], for which the IC50 in experiment [3] was less than 0.01 µM; in experiment [4], 0.1 to 1 µM. Also, the EC50 in experiment [5] is less than 5 µM.

With `CCn1c(-c2cccnc2[C@H](C)OC)c2c3cc(ccc31)-c1cc(O)cc(c1)C[C@H](NC(=O)[C@H](C(C)C)N(C)C(=O)CN(C)C(=O)[C@@H]1CN1CCCC#N)C(=O)N1CCC[C@H](N1)C(=O)OCC(C)(C)C2` (some centres unmarked) [Example 274], the results for the IC50 in experiment [3] and in experiment [4] were less than 0.01 µM and 0.1 to 1 µM, respectively. For the same compound, in experiment [5], the EC50 is less than 5 µM.

For the compound `CCn1c(-c2cccnc2[C@H](C)OC)c2c3cc(ccc31)-c1cc(O)cc(c1)C[C@H](NC(=O)[C@H](C(C)C)N(C)C(=O)CN(C)C(=O)[C@@H]1CN1C1COC1)C(=O)N1CCC[C@H](N1)C(=O)OCC(C)(C)C2` (some centres unmarked) [Example 276], the results for the IC50 in experiment [3] and in experiment [4] were 0.01 to 0.1 µM and 1 to 10 µM, respectively. The EC50 in experiment [5] was less than 5 µM.

In the case of `CCn1c(-c2cccnc2[C@H](C)OC)c2c3cc(ccc31)-c1cc(O)cc(c1)C[C@H](NC(=O)[C@H](C(C)C)N(C)C(=O)CN(C)C(=O)[C@H]1CN1CC1COC1)C(=O)N1CCC[C@H](N1)C(=O)OCC(C)(C)C2` (some centres unmarked) [Example 277], the figures for the IC50 in experiment [3] and in experiment [4] were 0.01 to 0.1 µM and 0.1 to 1 µM, respectively. Also, in experiment [5], the EC50 is less than 5 µM.

In the case of `CCn1c(-c2cccnc2[C@H](C)OC)c2c3cc(ccc31)-c1cc(O)cc(c1)C[C@H](NC(=O)[C@H](C(C)C)N(C)C(=O)CN(C)C(=O)[C@H]1CN1CC1(C)COC1)C(=O)N1CCC[C@H](N1)C(=O)OCC(C)(C)C2` (some centres unmarked) [Example 279], the IC50 was less than 0.01 µM in experiment [3] and 0.1 to 1 µM in experiment [4]. Also, in experiment [5], the EC50 is less than 5 µM.

With `CCn1c(-c2cccnc2[C@H](C)OC)c2c3cc(ccc31)-c1cc(O)cc(c1)C[C@H](NC(=O)[C@H](C(C)C)N(C)C(=O)CN(C)C(=O)[C@@H]1CN1CC1(C)COC1)C(=O)N1CCC[C@H](N1)C(=O)OCC(C)(C)C2` (some centres unmarked) [Example 280], the half-maximal inhibitory concentration (IC50) is less than 0.01 µM in experiment [3] and 1 to 10 µM in experiment [4]. Further, in experiment [5], the half-maximal effective concentration (EC50) was less than 5 µM.

Regarding `CCn1c(-c2cccnc2[C@H](C)OC)c2c3cc(ccc31)-c1cc(O)cc(c1)C[C@H](NC(=O)[C@H](C(C)C)N(C)C(=O)CN(C)C(=O)[C@@H]1N[C@H]1C1COC1)C(=O)N1CCC[C@H](N1)C(=O)OCC(C)(C)C2` [Example 283], the results for the 50% inhibitory concentration (IC50) in experiment [3] and in experiment [4] were 0.01 to 0.1 µM and 0.1 to 1 µM, respectively. Moreover, the EC50 in experiment [5] is less than 5 µM.

`CCn1c(-c2cccnc2[C@H](C)OC)c2c3cc(ccc31)-c1cc(O)cc(c1)C[C@H](NC(=O)[C@H](C(C)C)N(C)C(=O)CN(C)C(=O)[C@@H]1N[C@@H]1C1CCC1)C(=O)N1CCC[C@H](N1)C(=O)OCC(C)(C)C2` [Example 287]: the figures for the IC50 in experiment [3] and in experiment [4] were 0.01 to 0.1 µM and 0.1 to 1 µM, respectively. Besides, the EC50 in experiment [5] was less than 5 µM.

For `CCn1c(-c2cccnc2[C@H](C)OC)c2c3cc(ccc31)-c1cc(O)cc(c1)C[C@H](NC(=O)[C@H](C(C)C)N(C)C(=O)CN(C)C(=O)[C@H]1N[C@H]1C1CCC1)C(=O)N1CCC[C@H](N1)C(=O)OCC(C)(C)C2` [Example 288], the IC50 was 0.01 to 0.1 µM in experiment [3] and 0.1 to 1 µM in experiment [4]. The EC50 in experiment [5] is less than 5 µM.

`CCn1c(-c2cccnc2[C@H](C)OC)c2c3cc(ccc31)-c1cc(O)cc(c1)C[C@H](NC(=O)[C@H](C1CCCC1)N(C)C(=O)[C@@H](C)N(C)C(=O)[C@@H]1N[C@@H]1C1CC1)C(=O)N1CCC[C@H](N1)C(=O)OCC(C)(C)C2` [Example 327]: in experiment [2], the IC50 was 1 to 10 µM.

Source of the values: patent US20250195521A1 (Revolution Medicines, Inc., priority 2020, published 2025).
